PMC7913621 (Molecules, 2021)

Experiments:
[1] = tested on: epidermoid carcinoma A-431; assay: MTT cell viability assay, A-431; format: cell-based, human; conditions: Homo sapiens; A-431, MTT, 72 h; median (95% Confidence Intervals)
Description: (§1) The following human cell lines were used in this study: (i) epidermoid carcinoma A-431 (ATCC® CRL-1555), (ii) lung carcinoma A549 (ATCC® CCL-185), (iii) colorectal carcinoma HCT116 (ATCC® CCL-247), (iv) HCT116p53^−/−, (v) glioblastoma U-87 MG (ATCC® HTB-14), (vi) glioblastoma U-251 MG (ECACC 09063001), (vii) breast adenocarcinoma MCF7 (ATCC® HTB-22), (viii) breast adenocarcinoma MDA-MB-231 (ECACC 92020424), (ix) papillomavirus-related cervical squamous cell carcinoma SKG-IIIa (RRID:CVCL_1704), (x) cervical adenocarcinoma HeLa (ATCC® CCL-2), (xi) bone osteosarcoma U-2 OS (ATCC® HTB-96), (xii) hepatocellular carcinoma HEPG2 (ATCC® HB-8065), (xiii) larynx squamous cell carcinoma BICR 18 (ECACC 06051601), (ix) kidney HEK 293T (ATCC® CRL-11268), (xv) normal lung fibroblasts MRC-5 (ATCC® CCL-171), (xvi) normal fibroblasts BJ (ATCC® CRL-2522). The HCT116p53^−/− cell line was a kind gift from professor Bert Vogelstein (John Hopkin’s University, Baltimore, MD, USA). The remaining cell lines were purchased from ATCC (Manassas, VA, USA) or Sigma-Aldrich by Merck (Darmstadt, Germany).
(§2) Cells were cultured in minimal or Dulbecco’s modified Eagle’s or Ham’s F10 medium supplemented with 10% fetal bovine serum (Gibco by Thermo Fisher Scientific, Waltham, MA, USA) and (for BICR 18) 0.4 μg/mL hydrocortizone (Sigma-Aldrich by Merck, Darmstadt, Germany) under standard culture conditions (37 °C, 5% CO2) in a humidified incubator with an atmospheric oxygen.
(§3) The viability of cells was assayed by measuring the conversion of MTT (3-(4,5-dimethylthiazol-2-yl)-2,5-diphenyltetrazolium bromide) to the formazan (the rate of this reaction is proportional to the number of surviving cells). Cells were seeded in a 96-well plate at a density of 2500–3500 cells per well, 24 h before treatment. […] MTT stock solution (Sigma-Aldrich) was added at the final concentration 0.5 mg/mL. After 4 h of incubation at 37 °C, water-insoluble formazan was dissolved in a lysis buffer containing 20% SDS, 50% DMF, 2.5% hydrochloric acid and 2.5% acetic acid. Optical densities were measured at 570 nm using a scanning multi-well spectrophotometer ([…] Detection Platform; Beckman Coulter, Brea, CA, USA). At least three independent experiments of viability were conducted.

[2] = tested on: colorectal carcinoma HCT116; assay: MTT cell viability assay, HCT116; format: cell-based, human; conditions: Homo sapiens, HCT-116, 72 h, median (95% Confidence Intervals)
Description: as §1, §2, §3

[3] = tested on: colorectal carcinoma HCT116p53^−/−; assay: MTT cell viability assay, HCT116p53−/−; format: cell-based, human; conditions: Homo sapiens, 72 h, median (95% Confidence Intervals)
Description: as §1, §2, §3

[4] = tested on: glioblastoma U-87 MG; assay: MTT cell viability assay, U-87 MG; format: cell-based, human; conditions: Homo sapiens, 72 h, median (95% Confidence Intervals)
Description: as §1, §2, §3

[5] = tested on: breast adenocarcinoma MCF7; assay: MTT cell viability assay, MCF7; format: cell-based, human; conditions: Homo sapiens, 72 h, median (95% Confidence Intervals)
Description: as §1, §2, §3

[6] = tested on: cervical squamous cell carcinoma SKG-IIIa; assay: MTT cell viability assay, SKG-IIIa; format: cell-based, human; conditions: Homo sapiens, SKGIIIa, 72 h, median (95% Confidence Intervals)
Description: as §1, §2, §3

[7] = tested on: cervical adenocarcinoma HeLa; assay: MTT cell viability assay, HeLa; format: cell-based, human; conditions: Homo sapiens, 72 h, median (95% Confidence Intervals)
Description: as §1, §2, §3

[8] = tested on: bone osteosarcoma U-2 OS; assay: MTT cell viability assay, U-2 OS; format: cell-based, human; conditions: Homo sapiens, U2OS, 72 h, median (95% Confidence Intervals)
Description: as §1, §2, §3

[9] = tested on: kidney HEK 293T; assay: MTT cell viability assay, HEK 293T; format: cell-based, human; conditions: Homo sapiens, 72 h, median (95% Confidence Intervals)
Description: as §1, §2, §3

[10] = biological target: T1, recombinant human PDE5A/PDE5 protein (Homo sapiens, UniProt O76074); assay: colorimetric PDE Activity Assay Kit (Abcam), PDE5 inhibition; format: biochemical; conditions: for IC50: 200 μM cGMP, 40 ng enzyme, 20 min at 37 °C, 4% DMSO, read-out: IC50 against human PDE5; for Ki: read-out: Ki against human PDE5
T1 construct: purchased Abcam
Description: A high concentration of cGMP substrate was used (200 μM) due to the moderate sensitivity of the aforementioned assay.
The inhibitory effect of the tested compounds was measured using colorimetric PDE Activity Assay Kit (Abcam, Cambridge, UK). This assay allows the quantification of 5′-nucleotide released in the reaction catalyzed by tested phosphodiesterase, PDE5, using the additional enzyme 5′-nucleotidase to cleave the mentioned product, and next, using modified Malachite Green assay, the phosphate is quantified. The assay was carried in a 96-well plate at a volume of 40 μL in an assay buffer, containing 40 ng recombinant human PDE5A/PDE5 protein (Abcam), 200 μM cGMP, 25 kU 5′-nucleotidase and serially diluted ligand to preserve 4% of DMSO. The reaction was initiated with the enzyme and kept going for 20 min at 37 °C. The reaction was stopped by adding 80 μL of Green Assay reagent. After incubation at room temperature for 30 min (to develop color proportional to phosphate content), the absorbance at 620 nm was measured with The SpectraMax iD3 Multi-Mode Microplate Reader (Molecular Devices, San Jose, CA, USA). Inhibitors concentrations varied in the range of 2 pM–200 μM. Each experiment was repeated 4–5 times and IC50 values were calculated by global fitting of the sigmoidal dose response equation implemented in Origin 9.0 package (www.originlab.com). For each experiment, control reaction with no enzyme added and without inhibitor was also performed.

[11] = tested on: lung carcinoma A549; assay: MTT cell viability assay, A549; format: cell-based, human; conditions: Homo sapiens, 72 h, median (95% Confidence Intervals)
Description: as §1, §2, §3

[12] = tested on: breast adenocarcinoma MDA-MB-231; assay: MTT cell viability assay, MDA-MB-231; format: cell-based, human; conditions: Homo sapiens; MDA-MB-231, MTT, 72 h; median (95% Confidence Intervals)
Description: as §1, §2, §3

[13] = tested on: hepatocellular carcinoma HEPG2; assay: MTT cell viability assay, HEPG2; format: cell-based, human; conditions: Homo sapiens, 72 h, median (95% Confidence Intervals)
Description: as §1, §2, §3

[14] = tested on: larynx squamous cell carcinoma BICR 18; assay: MTT cell viability assay, BICR 18; format: cell-based, human; conditions: Homo sapiens; BICR 18, MTT, 72 h; median (95% Confidence Intervals)
Description: as §1, §2, §3

[15] = tested on: normal lung fibroblasts MRC-5; assay: MTT cell viability assay, MRC-5; format: cell-based, human; conditions: Homo sapiens, MRC5; MRC-5, MTT, 72 h; median (95% Confidence Intervals)
Description: as §1, §2, §3

[16] = tested on: normal fibroblasts BJ; assay: MTT cell viability assay, BJ; format: cell-based, human; conditions: Homo sapiens, Fibroblast, 72 h, median (95% Confidence Intervals)
Description: as §1, §2, §3

SMILES	IC50 [1]	IC50 [2]	IC50 [3]	IC50 [4]	IC50 [5]	IC50 [6]	IC50 [7]	IC50 [8]	IC50 [9]	IC50 [10]	Ki [10]	IC50 [11]	IC50 [12]	IC50 [13]	IC50 [14]	IC50 [15]	IC50 [16]
CN1CC(=O)N(Cc2ccc3c(c2)OCO3)[C@H](Cc2c[nH]c3ccccc23)C1=O [Compound 6a, (R)-3-((1H-indol-3-yl)methyl)-4-(benzo[d][1,3]dioxol-5-ylmethyl)-1-methylpiperazine-2,5-dione]	104 µM	102 µM	83.2 µM	153 µM	53.2 µM	146 µM	120 µM	93.5 µM	10.5 µM	137 ± 47 µM	1.4 ± 0.8 µM						
CN1CC(=O)N(Cc2cc3c(cc2Br)OCO3)[C@@H](Cc2c[nH]c3ccccc23)C1=O [Compound 7b, (S)-3-((1H-indol-3-yl)methyl)-4-((6-bromobenzo[d][1,3]dioxol-5-yl)methyl)-1-methylpiperazine-2,5-dione]	46.6 µM	58.7 µM	64.4 µM	99 µM	36.3 µM	57.3 µM	78.4 µM	88.8 µM	13.1 µM	39 ± 27 µM	0.39 ± 0.36 µM	131 µM	144 µM	124 µM	142 µM	96.6 µM	103 µM
CN1CC(=O)N(Cc2ccc3c(c2)OCO3)[C@@H](Cc2c[nH]c3ccccc23)C1=O [Compound 6b, (S)-3-((1H-indol-3-yl)methyl)-4-(benzo[d][1,3]dioxol-5-ylmethyl)-1-methylpiperazine-2,5-dione]	112 µM	83.7 µM	143 µM	151 µM	54.1 µM	87.6 µM	93.5 µM	88.3 µM	13 µM	260 ± 210 µM	2.6 ± 2.7 µM		128 µM			127 µM	143 µM
